# Source: patent US20070276141A1, “Preparation of Pharmaceutical Salts of [1,4] - Bipiperidine” (priority 2003, published 2007)
# Assay: Relative stability of solid forms
# Format: physicochemical
# Details: test conditions not given
smiles,measurement,value
"Cc1ccc(S(=O)(=O)NC(=O)N2CCC(N3CCC(Oc4ccc(Cl)c(Cl)c4)CC3)CC2)cc1 [Hydrate Form A, N-[[4-(3,4-dichlorophenoxy)[1,4′-bipiperidin]-1′-yl]carbonyl]-4-methyl-benzenesulfonamide]",stability compared with other solid forms of the sodium salt,more stable than Hydrate Forms B and D and Solvated Form E
